For orientation: Ki means a dissociation constant, usually derived from enzyme kinetics or from competition with a known ligand. A lower Ki goes with tighter binding.

Three compounds from US6242448A, “Trisubstituted-oxazole derivatives as serotonin ligands” (American Home Products Corporation, priority 1999, dated 2001) can be followed below.

The assay addresses T1, human 5HT1A receptor (Homo sapiens, UniProt P08908).
T1 construct: expressed in transfected cells; host or cells: CHO cells (stably transfected)
T1 sequence (P08908 1-422): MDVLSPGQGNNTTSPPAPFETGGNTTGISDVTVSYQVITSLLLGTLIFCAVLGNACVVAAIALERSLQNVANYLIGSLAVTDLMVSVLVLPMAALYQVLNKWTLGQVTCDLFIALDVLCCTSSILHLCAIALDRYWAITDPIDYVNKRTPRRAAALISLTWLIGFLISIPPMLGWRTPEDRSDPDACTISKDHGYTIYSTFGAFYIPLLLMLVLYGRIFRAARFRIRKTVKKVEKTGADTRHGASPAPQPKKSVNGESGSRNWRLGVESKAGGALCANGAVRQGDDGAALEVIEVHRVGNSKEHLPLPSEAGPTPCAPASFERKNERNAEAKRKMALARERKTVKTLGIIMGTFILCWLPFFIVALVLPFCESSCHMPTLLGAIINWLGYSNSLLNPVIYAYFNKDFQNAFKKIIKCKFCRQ
Description: 5-HT1A Receptor Binding Assay (displacement of [3H]8-OH-DPAT in CHO cells stably transfected with human 5HT1A receptor). Particulars: displacement of 8-OH-DPAT, 1.5 nM ligand, 30 minute incubation at room temperature. The procedure: High affinity for the serotonin 5--HT1A receptor was established by testing the claimed compound's ability to displace [^3 ]8-OH-DPAT binding in CHO cells stably transfected with human 5HT1A receptor. Stably transfected CHO cells are grown in DMEM containing 10% heat inactivated FBS and non-essential amino acids. Cells are scraped off the plate, transferred to centrifuge tubes, and washed twice by centrifugation (2000 rpm for 10 min., 4° C.) in buffer (50 mM Tris pH 7.5). The resulting pellets are aliquoted and placed at -80° C. On the day of assay, the cells are thawed on ice and resuspended in buffer. The binding assay is performed in a 96 well microtiter plate in a total volume of 250 μL. Non-specific binding is determined in the presence of […] 5HT, final ligand concentration is 1.5 nM. Following a 30 minute incubation at room temperature, the reaction is terminated by the addition of ice cold buffer and rapid filtration through a GF/B filter presoaked for 30 minutes in 0.5% PEI. Compounds are initially tested in a single point assay to determine percent inhibition at 1, 0.1, and 0.01 mM, and Ki values are determined for the active compounds.
In the case of `c1ccc(Cc2nc(C3CCCCC3)oc2CN2CCN(c3cccc4c3OCCO4)CC2)cc1` [Example 9, 1-(4-Benzyl-2-cyclohexyl-oxazol-5-ylmethyl)-4(2,3-dihydro-benzo[1,4]dioxin-5-yl)-piperazine], the Ki is 4.72 nM.
As for `c1ccc(Cc2nc(C3CCCCC3)oc2CN2CCN(c3cccc4[nH]ccc34)CC2)cc1` [Example 10, 4-[4-(4-Benzyl-2-cyclohexyl-oxazol-5-ylmethyl)-piperazin-1-yl]-1H-indole], the affinity, expressed as Ki, was 7.1 nM. This Ki is about 1.5-fold higher than that of the compound before.
The compound `COc1ccccc1N1CCN(Cc2oc(C3CCCCC3)nc2Cc2ccccc2)CC1` [Example 11, 1-(4Benzyl-2-cyclohexyl-oxazol-5-ylmethyl)-4-(2-methoxyphenyl)-piperazine] returned a Ki of 0.88 nM.
